Experimental data taken from patent publication US7423008B2, “Derivatives of mithramycin and methods of making and uses thereof” (University of Kentucky Research Foundation, priority 2004, dated 2008).

Legend:
NSCLC cell lines = experiment: Sulforhodamine B assay, 60 cell line panel: NSCLC; type: cell-based, human; conditions: for GI50: Homo sapiens, 60 cell, 8 cell lines, read-out: Average Log(GI50) (converted); for AIF (activity improvement factor, 10^Δ1−x): versus 1
Method: (§1) The cytotoxicity of Mithramycin-SK and demycarosyl-mithramycin-SK were assessed in a panel of 60 cell lines using a sulforhodamine B assay. It is active against a variety of tumor cell lines in the concentration range of 10^−5 to 10^−8 molar. Cell lines were inoculated into a series of 96-well microliter plates with varying seeding densities depending on the growth characteristics of the particular cell lines. Following a 24 hour drug-free incubation, mithramycin-SK was added routinely at five 10-fold dilutions with maximum concentration of […]. After 48 hours of drug exposure, the change in protein stain optical density allowed the inhibition of cell growth to be analyzed.

CNS cancer cells = experiment: Sulforhodamine B assay, 60 cell line panel: CNS; type: cell-based, human; conditions: for GI50: Homo sapiens, 60 cell, 5 cell lines, read-out: Average Log(GI50) (converted); for AIF (activity improvement factor, 10^Δ1−x): versus 1
Method: as §1

CNS (SF-268) = experiment: Proliferation inhibition assay (sulforhodamin B uptake), CNS cells; type: cell-based
Method: (§2) The experiment was performed by Biotecon, Berlin. It measures the uptake of sulforhodamin B (SRB), which is dependent on the cellular protein quantities, and can be performed in 96-well microtiter plates according to the protocol published by Boyd et al. (NCI). The SRB assay is a rapid and sensitive method to measure drug-induced cytotoxicity. Briefly, cells will be incubated with and without drug for 72 hours (drugs will be added after 24 hours), fixed with TCA (trichloroacetic acid), and stained for 30 minutes using a 0.4% (w/v) SRB solution in […]. Cultures will then be rinsed with 1% acetic acid, residual wash solution will be removed and air-dried. Bound dye will be solubilized with 10 mM unbuffered Tris base (pH 10.5) for 5 min., and the optical density (OD) will be measured with amicrotiter plate reader at 564 nm. (Skehan, P. et al., “New calorimetric cytotoxicity assay for anticancer-drug screening,” Journal of the National Cancer Institute, 1990. 82(13): p. 1107-1112).

Melanoma cell lines = experiment: Sulforhodamine B assay, 60 cell line panel: melanoma; type: cell-based, human; conditions: for GI50: Homo sapiens, 60 cell, 8 cell lines, read-out: Average Log(GI50) (converted); for AIF (activity improvement factor, 10^Δ1−x): versus 1
Method: as §1

[1] = test system: Prostrate cancer cell lines; experiment: Sulforhodamine B assay, 60 cell line panel: prostate; type: cell-based, human; conditions: for GI50: Homo sapiens, 60 cell, 2 cell lines, read-out: Average Log(GI50) (converted); for AIF (activity improvement factor, 10^Δ1−x): versus 1
Method: as §1

[2] = test system: Ovarian cancer cell lines; experiment: Sulforhodamine B assay, 60 cell line panel: ovarian; type: cell-based, human; conditions: for GI50: Homo sapiens, 60 cell, 6 cell lines, read-out: Average Log(GI50) (converted); for AIF (activity improvement factor, 10^Δ1−x): versus 1
Method: as §1

Colon cancer cell lines = experiment: Sulforhodamine B assay, 60 cell line panel: colon; type: cell-based, human; conditions: for GI50: Homo sapiens, 60 cell, 7 cell lines, read-out: Average Log(GI50) (converted); for AIF (activity improvement factor, 10^Δ1−x): versus 1
Method: as §1

Lung (NCI-H460) = experiment: Proliferation inhibition assay (sulforhodamin B uptake), lung cells; type: cell-based
Method: as §2

Breast (MCF-7) = experiment: Proliferation inhibition assay (sulforhodamin B uptake), breast cells; type: cell-based; conditions: concentration 1 × 10^−5 molar
Method: as §2

Leukemia cell lines = experiment: Sulforhodamine B assay, 60 cell line panel: leukemia; type: cell-based, human; conditions: for GI50: Homo sapiens, 60 cell, 5 cell lines, read-out: Average Log(GI50) (converted); for AIF (activity improvement factor, 10^Δ1−x): versus 1
Method: as §1

Renal cancer cell lines = experiment: Sulforhodamine B assay, 60 cell line panel: renal; type: cell-based, human; conditions: for GI50: Homo sapiens, 60 cell, 8 cell lines, read-out: Average Log(GI50) (converted); for AIF (activity improvement factor, 10^Δ1−x): versus 1
Method: as §1

Breast cancer cell lines = experiment: Sulforhodamine B assay, 60 cell line panel: breast; type: cell-based, human; conditions: for GI50: Homo sapiens, 60 cell, 8 cell lines, read-out: Average Log(GI50) (converted); for AIF (activity improvement factor, 10^Δ1−x): versus 1
Method: as §1

Lung carcinoma = experiment: Neutral red assay, lung carcinoma; type: cell-based; conditions: for GI50: read-out: Average Log(GI50) (converted)
Description: (§3) Mithramycin-SK was particularly active against melanoma, leukemia, and CNS cancer cells (log(GI50) values of −7.64, −7.59, and −7.61, respectively).

Melanoma = experiment: Neutral red assay, melanoma; type: cell-based; conditions: for GI50: read-out: Average Log(GI50) (converted)
Description: as §3

Squamous carcinoma = experiment: Neutral red assay, squamous carcinoma; type: cell-based; conditions: for GI50: read-out: Average Log(GI50) (converted)
Description: as §3

[3] = test system: 60 human cancer cell lines; experiment: Sulforhodamine B cytotoxicity assay, whole panel of 60 cell lines (NCI); type: cell-based
Method: The mithramycin SK has antitumor activity substantially higher than that of MTM and is particularly active against melanoma, leukemia and CNS cancer cells.
as §1

Breast carcinoma = experiment: Neutral red assay, breast carcinoma; type: cell-based; conditions: for GI50: read-out: Average Log(GI50) (converted)
Description: as §3

[4] = test system: non-tumorous mouse fibroblast cells (NIH 3T3); experiment: Neutral red toxicity assay on non-tumorous fibroblasts; type: cell-based; conditions: for IC50: NIH3T3, neutral red
Method: Mithramycin-SK and demycarosyl-mithramycin-SK were also tested in a neutral red toxicity assay. In this experiment, non-tumorous mouse fibroblast cells were used (NIH 3T3).
as §3

[5] = test system: squamous, melanoma, lung, and breast carcinomas; experiment: Neutral red uptake analysis of carcinomas, overall; type: cell-based; conditions: cells not given
Description: as §3

[6] = mouse 3T3 fibroblast (nontumor) cells
[7] = concentration 1 × 10^−4.6 molar

| SMILES | GI50 (NSCLC cell lines) | AIF (activity improvement factor, 10^Δ1−x) (NSCLC cell lines) | GI50 (CNS cancer cells) | AIF (activity improvement factor, 10^Δ1−x) (CNS cancer cells) | Percent Growth in 48 Hours, CNS (SF-268) (CNS (SF-268); concentration 1 × 10^−5 molar) | GI50 (Melanoma cell lines) | AIF (activity improvement factor, 10^Δ1−x) (Melanoma cell lines) | GI50 [1] | AIF (activity improvement factor, 10^Δ1−x) [1] | GI50 [2] | AIF (activity improvement factor, 10^Δ1−x) [2] | GI50 (Colon cancer cell lines) | AIF (activity improvement factor, 10^Δ1−x) (Colon cancer cell lines) | Percent Growth in 48 Hours, Lung (NCI-H460) (Lung (NCI-H460); concentration 1 × 10^−5 molar) | Percent Growth in 48 Hours, Breast (MCF-7) (Breast (MCF-7)) | GI50 (Leukemia cell lines) | AIF (activity improvement factor, 10^Δ1−x) (Leukemia cell lines) | GI50 (Renal cancer cell lines) | AIF (activity improvement factor, 10^Δ1−x) (Renal cancer cell lines) | GI50 (Breast cancer cell lines) | also measured |
| --- | --- | --- | --- | --- | --- | --- | --- | --- | --- | --- | --- | --- | --- | --- | --- | --- | --- | --- | --- | --- | --- |
| COC(C(O)C(C)=O)[C@@H]1Cc2cc3cc(OC4CC(OC5CC(O)C(O)C(C)O5)C(O)C(C)O4)c(C)c(O)c3c(O)c2C(=O)[C@H]1OC1CC(OC2CC(O)C(O)C(C)O2)C(O)C(C)O1 (stereo partly drawn) [Demycarosyl-Mithramycin-SK, Demycarosyl-mithramycin-SK] | 5010 nM | 0.04 | 5010 nM | 0.03 | 47% | 4270 nM | 0.04 | 5620 nM | 0.02 | 5890 nM | 0.04 | 4470 nM | 0.05 | 5% | 22% | 2820 nM | 0.08 | 7240 nM | 0.03 | 7080 nM | AIF (activity improvement factor, 10^Δ1−x) (Breast cancer cell lines): 0.04 |
| COC(C(O)C(C)=O)[C@@H]1Cc2cc3cc(OC4CC(OC5CC(O)C(O)C(C)O5)C(O)C(C)O4)c(C)c(O)c3c(O)c2C(=O)[C@H]1OC1CC(OC2CC(OC3CC(C)(O)C(O)C(C)O3)C(O)C(C)O2)C(O)C(C)O1 (stereo partly drawn) [Mithramycin-SK, mithramycin-SK] | 42.7 nM | 4.4 | 24.5 nM | 6.8 | 1% | 22.9 nM | 8.3 | 33.1 nM | 3.8 | 29.5 nM | 8.5 | 47.9 nM | 4.7 | 0.1% | 0.2% | 25.7 nM | 8.7 | 51.3 nM | 3.6 | 1290 nM | GI50 (Lung carcinoma): 132 nM; AIF (activity improvement factor, 10^Δ1−x) (Lung carcinoma; versus 1): 91.2; GI50 (Melanoma): 562 nM; AIF (activity improvement factor, 10^Δ1−x) (Melanoma; versus 1): 15.8; GI50 (Squamous carcinoma): 1020 nM; AIF (activity improvement factor, 10^Δ1−x) (Squamous carcinoma; versus 1): 8.9; activity, times higher than that of MTM ([3]; compilation of the average log(GI50) values): up to 9 times; antitumor activity compared to parent compound MTM ([3]; initial in vitro anticancer assays by the NCI, 60 human cancer cell lines): up to two orders of magnitude better antitumor activity; GI50 (Breast carcinoma): 182 nM; AIF (activity improvement factor, 10^Δ1−x) (Breast carcinoma; versus 1): 61.6; toxicity (concentration still without toxicity) ([4]; NIH 3T3, after 24 hours of incubation): > 200 µg/mL; IC50 [4, 6]: 19600 nM; toxicity compared to parent compound MTM ([4]; in vitro toxicity assay): two orders of magnitude lesser toxicity; fold less toxic than MTM ([4]; mouse 3T3 fibroblast (nontumor) cells, ratio of IC50 values): more than 1500 fold; concentrations revealing antiproliferative activity [5]: < 1 µg/mL; AIF (activity improvement factor, 10^Δ1−x) (Breast cancer cell lines): 0.2 |
| CO[C@H](C(=O)[C@@H](O)[C@@H](C)O)[C@@H]1Cc2cc3cc(OC4CC(OC5CC(O)C(O)C(C)O5)C(O)C(C)O4)c(C)c(O)c3c(O)c2C(=O)[C@H]1OC1CC(OC2CC(OC3CC(C)(O)C(O)C(C)O3)C(O)C(C)O2)C(O)C(C)O1 (stereo partly drawn) [Mithramycin] | 186 nM |  | 166 nM |  |  | 191 nM |  | 126 nM |  | 251 nM |  | 224 nM |  | 12% | 12% | 224 nM |  | 186 nM |  | 257 nM | GI50 (Lung carcinoma): 12000 nM; GI50 (Melanoma): 8910 nM; GI50 (Squamous carcinoma): 9120 nM; GI50 (Breast carcinoma): 11200 nM; IC50 [4, 6]: 3.45 to 12.9 nM |
| CO[C@@H]1C(=O)C(C(C)=O)=C(O)[C@@]2(O[C@H]3C[C@@H](O)[C@H](O)[C@@H](C)O3)C(=O)c3c(cc4cc(O)cc(O)c4c3O)C[C@@H]12 [Premithramycin A1, reference compound] |  |  |  |  |  |  |  |  |  |  |  |  |  |  |  |  |  |  |  |  | Percent Growth in 48 Hours, CNS (SF-268) (CNS (SF-268); [7]): 93%; Percent Growth in 48 Hours, Lung (NCI-H460) (Lung (NCI-H460); [7]): 68% |
| CO[C@@H]1C(=O)C(C(C)=O)=C(O)[C@@]2(O[C@H]3C[C@@H](O[C@H]4C[C@@H](O[C@H]5C[C@](C)(O)[C@H](O)[C@@H](C)O5)[C@@H](O)[C@@H](C)O4)[C@H](O)[C@@H](C)O3)C(=O)c3c(cc4cc(O[C@H]5C[C@@H](O[C@H]6C[C@@H](O)[C@H](O)[C@@H](C)O6)[C@H](O)[C@@H](C)O5)c(C)c(O)c4c3O)C[C@@H]12 [Premithramycin B, reference compound] |  |  |  |  | >100% |  |  |  |  |  |  |  |  | >100% | >100% |  |  |  |  |  |  |
